Source: publication PMC7581722, “Tolerogenic Immunomodulation by PEGylated Antigenic Peptides” (Frontiers in Immunology, 2020)

Columns and labels:
[1] = test system: TNF-producing OVA-TCR+ CD4+ T cells; type: in vivo
OVA-TCR+ CD4+ T cells [2] = experiment: Analysis of bioavailability: vaccination 3 days before transfer of CFSE-labeled OVA-specific CD4+ cells; parameters: species or system BALB/c mice; details: mouse, in vivo, iv
Procedure: To test for the presence of bioactive material in the organism after an extended period of time (bioavailability), recipients were treated with pOVA or equimolar amounts of PEGylated peptides 3 days before transfer of CFSE-labeled OVA-specific CD4^+ cells. Proliferation was assessed 6 days after CD4^+ T cell transfer by dilution of CFSE intensity using flow cytometry.
We next addressed the question whether PEGylation leads to an extended half-life (bioavailability) of the antigenic peptide in the organism and whether size and structure of the PEG molecule matter. For this, we tested the degree of proliferation after vaccination with a single i.v. injection of pOVA or conjugates at 3 days prior to transfer of OVA-specific T cells ( Figure 3A ). Six days after cell transfer, splenocytes were isolated and proliferation of OVA-TCR^+ CD4^+ T cells was analyzed according to CFSE content.
Figure 3 Conjugation of pOVA to the macromolecular carrier PEG extends peptide bioavailability. (A) Set-up for analysis of the bioavailability. (B) OVA-specific CD4^+ CFSE-labeled T cells were transferred into BALB/c mice three days after i.v. peptide vaccination with unconjugated pOVA or equimolar amounts of pOVA-PEG conjugates. After 6 days proliferation was assessed by flow cytometry. Cells from spleen and pLN were gated on OVA-TCR^+ CD4^+ T cells. […]

[3] = test system: Foxp3+ regulatory T cells among OVA-TCR+ CD4+ T cells; experiment: Adoptive transfer: Foxp3 expression of OVA-TCR+ CD4+ splenocytes after vaccination; type: in vivo, BALB/c mice
Procedure: Cell fixation, permeabilization, and intracellular Foxp3 staining were performed using the eFluor450 anti-mouse Foxp3 (eBioscience) staining set according to manufacturer’s instructions.
On day 0, 5 × 10^6 CFSE-labeled CD4^+ cells from DO11.10 were adoptively transferred intravenously (i.v.) into syngeneic BALB/c mice. After 24 hours, mice were treated by a single i.v. injection of PBS (control), unconjugated pOVA or equimolar amounts of PEG-conjugated pOVA as indicated. […] On day 7, splenocytes were isolated, and OVA-TCR^+ CD4^+ T cells were identified by an anti-KJ1.26 antibody, recognizing the OVA-specific TCR on transferred DO11.10 cells.
To assess the immunomodulatory effect of administration of different types of PEGylated pOVA, we analyzed the expression of Foxp3, the master transcription factor of Tregs and the cytokine profile of antigen-specific T cells upon vaccination.
CFSE-labeled CD4^+ cells from DO11.10 mice were transferred into BALB/c mice. After 24 h, mice received either PBS (control), indicated doses of pOVA or equimolar amounts of PEGylated peptides. After 6 days, Foxp3 expression was assessed using flow cytometry. Spleen cells were gated on OVA-TCR^+ CD4^+ T cells. (A) Representative FACS dot plots of Foxp3 expression following tolerization with pOVA or pOVA-PEG conjugates at a dose of 5 µg (based on peptide amount). (B) Dose response curve in vivo. […]

[4] = test system: Th1-driven DTH footpad swelling; experiment: Delayed-type hypersensitivity (DTH) model, footpad swelling; type: in vivo, BALB/c mice; details: 5 µg i.v. or equimolar; Th1 transfer day 7; footpad challenge pOVA/IFA; 8 days; n = 15
Procedure: pOVA-specific CD4^+ cells were adoptively transferred into BALB/c mice, which were treated i.v. with PBS (control), 5 μg of pOVA or equimolar amounts of pOVA-PEG20 24 h later (tolerization). To induce the effector phase, in vitro generated pOVA-specific Th1 cells were transferred into the recipients on day 7. After 24 h, pOVA in IFA or PBS/IFA were injected into the left or right hind footpad, respectively. Footpad swelling was monitored for 8 consecutive days and expressed as Δ footpad thickness.
To investigate whether pOVA-PEG20 is able to prevent the development of an inflammatory reaction in vivo, we used a DTH model based on the transfer of pre-formed Th1 cells, intra-footpad challenge with pOVA and measurement of footpad swelling for 8 days. […] As discussed below, a clearer superiority of PEGylated peptide over native peptide in tolerance induction was found in a more physiological EAE-model studied in parallel ([35]).
OVA-specific CD4^+ cells were adoptively transferred into BALB/c mice, which were treated i.v. with PBS (control), 5 μg of pOVA or equimolar amounts of pOVA-PEG20 24 h later. On day 7, in vitro generated OVA-specific Th1 cells were transferred into the recipients. […] The difference in footpad thickness after challenge was monitored for eight consecutive days. […]

[5] = test system: Foxp3+ Tregs among OVA-TCR+ CD4+ cells; experiment: Adoptive transfer of Treg-depleted CD4+ cells: de novo induction of Foxp3+ Tregs; type: in vivo, BALB/c mice; details: 5 µg i.v. or equimolar, 6 days; spleen, pLN, mLN, livLN; n = 3-7
Procedure: To investigate whether Tregs are expanded or induced de novo, purified CFSE-labeled CD4^+ CD25^- CD103^- T cells from DO11.10 mice were adoptively transferred i.v. into BALB/c mice. After 24 h, mice were treated by a single i.v. injection of PBS (control), unconjugated pOVA at a dose of 5 µg per mouse or equimolar amounts of PEGylated pOVA. On day 7, different lymphatic organs were isolated and OVA-specific CD4^+ T cells were identified by an anti-KJ1.26 antibody.
To investigate whether the increase of Treg frequency following pOVA-PEG20 treatment is due to de novo induction or to expansion of pre-existing Tregs, we transferred Treg-depleted OVA-specific CD4^+ T cells prior to vaccination with pOVA or pOVA-PEG20. […] The frequency of Foxp3^+ Tregs reached similar levels following pOVA and pOVA-PEG20 administration in both spleen and pLN, whereas pOVA-PEG20 increased the Treg frequency in mLN (trend) and the livLN (significant) compared to pOVA.
Figure 5 Administration of pOVA-PEG20 leads to de novo induction of Foxp3^+ Tregs. Treg-depleted CD4^+ T cells from DO11.10 mice were transferred into BALB/c mice 24 h prior to treatment with PBS (control), 5 µg of pOVA or equimolar amounts of pOVA-PEG20. Six days post peptide vaccination, spleen, pLN, mLN and livLN were isolated and Foxp3 expression was analyzed using flow cytometry. […]

OVA-TCR+ CD4+ cells = experiment: Adoptive transfer with additional LPS (inflammatory conditions); type: in vivo, BALB/c mice; details: 5 µg i.v. or equimolar + 50 µg LPS, 6 days
Procedure: (§1) On day 0, 5 × 10^6 CFSE-labeled CD4^+ cells from DO11.10 were adoptively transferred intravenously (i.v.) into syngeneic BALB/c mice. After 24 hours, mice were treated by a single i.v. injection of PBS (control), unconjugated pOVA or equimolar amounts of PEG-conjugated pOVA as indicated. In some experiments, mice were also treated with unconjugated pOVA + 50 µg of lipopolysaccharide (LPS) or pOVA-PEG + 50 µg of LPS. On day 7, splenocytes were isolated, and OVA-TCR^+ CD4^+ T cells were identified by an anti-KJ1.26 antibody, recognizing the OVA-specific TCR on transferred DO11.10 cells.
To investigate the impact of inflammatory conditions, we analyzed the effect of lipopolysaccharide (LPS) application on the response of transferred unmanipulated OVA-TCR^+ CD4^+ cells.
24 h after adoptive transfer of OVA-specific CD4^+ T cells, recipients received i.v. PBS (control), 5 µg of pOVA or equimolar amounts of pOVA-PEG conjugates with or without additional LPS. After 6 days, splenocytes were isolated and Foxp3 expression as well as TNF production was assessed by flow cytometry. (A) % TNF^+ cells gated on OVA-specific CD4^+ cells, mean ± SD of data from three independent experiments. (B) % KJ1.26^+ (OVA-specific) splenocytes among total CD4^+ population; mean ± SD of pooled data from three independent experiments. […]

OVA-TCR+ CD4+ T cells [6] = experiment: Frequency of OVA-TCR+ CD4+ cells among total CD4+ splenocytes (deletion); type: in vivo, BALB/c mice; details: 5 µg i.v. or equimolar, day 6; compared to PBS (PEG20 also to pOVA); n = 5-11
Procedure: as §1
Besides Treg expansion/induction and anergy, deletion of antigen-specific T effector cells by activation-induced cell death also dampens the immune response. […] Thus, vaccination with this conjugate is more efficient in triggering activation-induced death compared to native peptide or pOVA-PEG-tetramer vaccination where some death might outbalance induced proliferation.
Figure 8 Administration of pOVA-PEG20 reduces the frequency of OVA-TCR^+ CD4^+ T cells among total CD4^+ splenocytes. OVA-specific CD4^+ cells were transferred into BALB/c mice. After 24 h, mice received i.v. PBS (control), 5 µg of pOVA or equimolar amounts of pOVA-PEG conjugates. After 6 days, the frequency of OVA-TCR^+ CD4^+ cells among total CD4^+ T cells was assessed using flow cytometry. […]

OVA-specific Th1 cells = experiment: Adoptive transfer of in vitro generated antigen-specific Th1 cells; type: in vivo; details: 5 µg i.v. or equimolar, 24 h after Th1 transfer, CFSE, n = 6
Procedure: CD4^+ T cells were isolated from DO11.10 mice via MACS-sorting as above and co-cultured 1:3 with APCs (CD4^- CD90^-) (final concentration: 2 x 10^6 cells/ml). Cells were incubated with 1 µg/ml of pOVA, IFN-γ (20 ng/ml) (R&D Systems, McKinley, USA), IL12 (5 ng/ml) (R&D), and anti-IL4-antibody (11B11, produced in house) (5 µg/ml). After 6 days, cells were harvested, and IFN-γ expression was assessed via flow cytometry.
5 × 10^6 purified polarized CFSE-labeled Th1 cells from DO11.10 mice were adoptively transferred i.v. into BALB/c mice. After 24 h, mice were treated by a single i.v. injection of PBS (control), unconjugated pOVA at a dose of 5 µg per mouse or equimolar amounts of PEGylated pOVA. On day 5, splenocytes were isolated, and OVA-specific Th1 cells were identified by an anti-KJ1.26 antibody.
To analyze these questions, in vitro generated OVA-specific Th1 effector cells ( Supplementary Figure 5 ) were transferred into BALB/c mice prior to peptide vaccination. Proliferation and expression of IFN-γ and Foxp3 were assessed on day 5.
Figure 9 pOVA-PEG20 vaccination in presence of pre-existing T effector cells. […] After four days, splenocytes were re-isolated and proliferation, IFN-γ and TNF production as well as Foxp3 expression was assessed using flow cytometry. […] (E, F) Absolute number of antigen-specific IFNγ or Foxp3^+ cells expressed as % of total CD4^+. […]

For ISQAVHAAHAEINEAGR [pOVA], the “Mean ratio % TNF+/% Foxp3+ cells (effector cell/Treg ratio)” value ([1]; 5 µg i.v. or equimolar, 6 days, spleen, gated on OVA-TCR+ CD4+ cells, n = 5-8) was 2.23, the “IL-10 staining of OVA-specific cells after restimulation, representative plot gate number (Suppl. Fig. 3)” value ([1]; 5 µg in vivo (based on peptide amount), day 7, lower pair of plots) was 0.58 and the “T cell proliferation when vaccinated 3 days prior to T cell transfer (bioavailability)” value (OVA-TCR+ CD4+ T cells [2]) was “Little T cell proliferation”. The “Foxp3+ among OVA-TCR+ CD4+ splenocytes, representative FACS dot plot (Fig. 4A gate number)” value ([3]; 5 µg i.v. (based on peptide amount), 6 days after treatment, single representative plot) was 24.7%, the “Frequency of splenic OVA-specific Foxp3+ regulatory T cells (in words)” value ([3]; 5 µg i.v. or equimolar, pOVA, PEG40, tetramer compared to PBS, PEG20 compared to pOVA) was “significant increase” and the “Tolerance in Th1-driven DTH model (Δ footpad thickness)” value [4] was “partial tolerance”. For the same sequence, the “De novo induction of Foxp3+ Tregs from Treg-depleted CD4+ cells” value [5] was “able to induce Foxp3^+ Tregs in all organs analyzed”, the “Increase in Foxp3+ cells upon vaccination in presence of LPS” value (OVA-TCR+ CD4+ cells) was “completely suppressed” and the “Frequency of OVA-specific (OVA-TCR+ CD4+) cells among host CD4+ splenocytes” value (OVA-TCR+ CD4+ T cells [6]) was “not reducing”. For the same sequence, the “Proliferative response of transferred Th1 cells” value (OVA-specific Th1 cells) was “moderate proliferative response”.
